In assay [1] the target is GDP-bound HRAS wild-type protein (Homo sapiens, UniProt P01112). As to the kind of experiment: Binding to HRAS by surface plasmon resonance (SPR), Single Cycle Kinetics. The following applies: for HRAS/KRAS (ratio of KD value with respect to HRAS to KD value with respect to KRAS) / HRAS/KRAS (ratio of KD value for HRAS to KD value for KRAS): GDP-bound HRAS wild-type vs GDP-bound KRAS wild-type. (SPR reads the build-up and loss of mass on a sensor chip optically.)

For assay [2], the target named is GDP-bound NRAS wild-type protein (Homo sapiens, UniProt P01111). The assay is described as follows: Binding to NRAS by surface plasmon resonance (SPR), Single Cycle Kinetics. The note with it: for NRAS/KRAS (ratio of KD value with respect to NRAS to KD value with respect to KRAS) / NRAS/KRAS (ratio of KD value for NRAS to KD value for KRAS): GDP-bound NRAS wild-type vs GDP-bound KRAS wild-type.

The structures appear in SMILES notation. *1 amine or outer side, *2 acyl side, *3 side chain or, on linkers, in order; H or OH if unused. Where a SMILES comes first, the peptide text is derived from it. Bridges are numbered along the chain shown (N, C = ends). [ ]: non-standard residue; d: D form. The star is where a group is joined. hPhe(3-Cl-4-CF3) = N[C@@H](CCc1ccc(C(F)(F)F)c(Cl)c1)C(=O)O; X41 = Cc1ccc(C[C@@H](C(=O)[*:2])N(CCC(F)(F)F)[*:1])cc1; NEtPhe(4-Me) = CCN[C@@H](Cc1ccc(C)cc1)C(=O)O; NMeGly(cPent) = CN[C@H](C(=O)O)C1CCCC1; NMeD = CN[C@@H](CC(=O)O)C(=O)O; NMeL = CN[C@@H](CC(C)C)C(=O)O; NMeV = CN[C@H](C(=O)O)C(C)C; Morpholide = C1CN(*)CCO1; NMeA = CN[C@@H](C)C(=O)O; Ac5c = NC1(C(=O)O)CCCC1; Aze = O=C(O)[C@@H]1CCN1; Sar = CNCC(=O)O

Chain of GDP-bound HRAS wild-type protein (P01112 whole entry): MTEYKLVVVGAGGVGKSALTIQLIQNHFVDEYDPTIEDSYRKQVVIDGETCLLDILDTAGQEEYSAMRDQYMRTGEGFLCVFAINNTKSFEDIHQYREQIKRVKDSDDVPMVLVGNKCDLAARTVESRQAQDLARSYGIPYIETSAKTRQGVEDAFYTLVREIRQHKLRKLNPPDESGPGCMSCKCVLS
Chain of GDP-bound NRAS wild-type protein (P01111 whole entry): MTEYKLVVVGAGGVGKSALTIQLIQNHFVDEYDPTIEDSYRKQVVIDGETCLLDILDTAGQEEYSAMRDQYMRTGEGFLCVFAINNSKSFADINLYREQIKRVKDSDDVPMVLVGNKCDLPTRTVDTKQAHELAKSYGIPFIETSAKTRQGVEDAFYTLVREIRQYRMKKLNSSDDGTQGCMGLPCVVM

For `CCC(CC)[C@H]1C(=O)N(C)[C@H](C(=O)N(C)C)CC(=O)N(C)[C@@H](COC)C(=O)N[C@@H]([C@@H](C)CC)C(=O)N(C)CC(=O)N(C)[C@H]2C/C=C\CCN(C2=O)[C@@H](Cc2ccc(C(F)(F)F)cc2)C(=O)N(C)CC(=O)N[C@@H](CCc2cc(F)c(C(F)(F)F)c(F)c2)C(=O)N2CC3(CC3)C[C@H]2C(=O)NC2(CC(C)(C)C2)C(=O)N1C` [PP2961], the “HRAS/KRAS (ratio of KD value with respect to GDP-bound HRAS wild-type protein to KD value with respect to KRAS)” value in assay [1] (class symbols) is “A (a compound having 10 or more and less than 20 is denoted as A)”. The “NRAS/KRAS (ratio of KD value with respect to GDP-bound NRAS wild-type protein to KD value with respect to KRAS)” value in assay [2] (class symbols) was “AA (a compound having 20 or more is denoted as AA)”.

For `CCCN(C)C(=O)[C@@H]1CC(=O)N(C)[C@@H](CC)C(=O)N[C@@H]([C@@H](C)CC)C(=O)N(C)CC(=O)N(C)[C@H]2C/C=C\CCN(C2=O)[C@@H](Cc2ccc(C(F)(F)F)cc2)C(=O)N(C)CC(=O)N[C@@H](CCc2cc(F)c(C(F)(F)F)c(F)c2)C(=O)N2C[C@H](OCC3CC3)C[C@H]2C(=O)NC2(CCC2)C(=O)N(C)[C@@H](C2CCCC2)C(=O)N1C` [PP2913], the “HRAS/KRAS (ratio of KD value with respect to GDP-bound HRAS wild-type protein to KD value with respect to KRAS)” value in assay [1] (class symbols) is “A (a compound having 10 or more and less than 20 is denoted as A)”. The “NRAS/KRAS (ratio of KD value with respect to GDP-bound NRAS wild-type protein to KD value with respect to KRAS)” value in assay [2] (class symbols) was “A (a compound having 10 or more and less than 20 is denoted as A)”.

On to `CC[C@H](C)[C@@H]1NC(=O)[C@H](COC)N(C)C(=O)C[C@@H](C(=O)N2CCOCC2)N(C)C(=O)[C@H](C2CCCC2)N(C)C(=O)C2(CCC2)NC(=O)[C@@H]2CC(F)(F)CN2C(=O)[C@H](CCc2cc(F)c(C(F)(F)F)c(F)c2)NC(=O)CN(C)C(=O)[C@H](Cc2ccc(C(F)(F)F)cc2)N2CCCCC[C@@H](C2=O)N(C)C(=O)[C@@H]2CCN2C1=O` [PP0866], for which the “HRAS/KRAS (ratio of KD value with respect to HRAS to KD value with respect to KRAS)” value in assay [1] (KD ratio, SPR) was “B (a compound having 3 or more and less than 10 is denoted as B)”. Further, the “NRAS/KRAS (ratio of KD value with respect to NRAS to KD value with respect to KRAS)” value in assay [2] (KD ratio, SPR) was “B (a compound having 3 or more and less than 10 is denoted as B)”.

On to `CC[C@H](C)[C@@H]1NC(=O)[C@H](CC(C)C)N(C)C(=O)C[C@@H](C(=O)N2CCOCC2)N(C)C(=O)[C@H](C2CCCC2)N(C)C(=O)C2(CCCC2)NC(=O)[C@@H]2CCCN2C(=O)[C@H](CCc2ccc(C(F)(F)F)c(Cl)c2)NC(=O)CN(C)C(=O)[C@H](Cc2ccc(C)cc2)N(CCC(F)(F)F)C(=O)[C@@H]2CCN2C(=O)[C@H](C)N(C)C1=O` [PP0091] ([NMeL]I[NMeA][Aze][X41][Sar][hPhe(3-Cl-4-CF3)]P[Ac5c][NMeGly(cPent)][NMeD]-Morpholide; lactam N-11), for which the “HRAS/KRAS (ratio of KD for GDP-bound HRAS wild-type to KD for KRAS)” value in assay [1] (SPR) is “B (a compound having 3 or more and less than 10 is denoted as B)”. Moreover, the “NRAS/KRAS (ratio of KD for GDP-bound NRAS wild-type to KD for KRAS)” value in assay [2] (SPR) was “C (A compound having a KD ratio of 0.1 or more and less than 3 is denoted as C)”.

For the compound `CCOC[C@H]1C(=O)N[C@@H]([C@@H](C)CC)C(=O)N(C)CC(=O)N(C)[C@H]2C/C=C\CCN(C2=O)[C@@H](Cc2ccc(C)cc2)C(=O)N(C)CC(=O)N[C@@H](CCc2ccc(C(F)(F)F)c(OC)c2)C(=O)N2C[C@H](OCC)C[C@H]2C(=O)NC2(CC(C)(C)C2)C(=O)N(C)[C@@H](C2CCCC2)C(=O)N(C)[C@H](C(=O)N(C)CC)CC(=O)N1C` [PP2445], the “HRAS/KRAS (ratio of KD value with respect to HRAS to KD value with respect to KRAS)” value in assay [1] (SPR) was “B (a compound having 3 or more and less than 10 is denoted as B)”. For the same compound, the “NRAS/KRAS (ratio of KD value with respect to NRAS to KD value with respect to KRAS)” value in assay [2] (SPR) was “A (a compound having 10 or more and less than 20 is denoted as A)”.

For `CC[C@H](C)[C@@H]1NC(=O)[C@H](CC)N(C)C(=O)C[C@@H](C(=O)N(C)C)N(C)C(=O)[C@H](C2CCCC2)N(C)C(=O)C2(CCC2)N(C)C(=O)[C@@H]2C[C@@H](C)CN2C(=O)[C@H](CCc2cc(F)c(C(F)(F)F)c(F)c2)NC(=O)CN(C)C(=O)[C@H](Cc2ccc(C)cc2)N2CC/C=C\C[C@@H](C2=O)N(C)C(=O)CN(C)C1=O` [PP1787], the “HRAS/KRAS (ratio of KD value for HRAS to KD value for KRAS)” value in assay [1] (KD ratio, SPR) is “B (a compound having 3 or more and less than 10 is denoted as B)”. Moreover, in assay [2] (KD ratio, SPR), the “NRAS/KRAS (ratio of KD value for NRAS to KD value for KRAS)” value was “A (a compound having 10 or more and less than 20 is denoted as A)”.

As for `CCO[C@@H]1C[C@H]2C(=O)NC3(CC(C)(C)C3)C(=O)N(C)[C@@H](C3CCCC3)C(=O)N(C)[C@H](C(=O)N3CCOCC3)CC(=O)N(C)[C@@H](CC(C)C)C(=O)N[C@@H]([C@@H](C)CC)C(=O)N(C)CC(=O)N(C)[C@H]3CCCCCN(C3=O)[C@@H](Cc3ccc(C(F)(F)F)cc3)C(=O)N(C)CC(=O)N[C@@H](CCc3cc(F)c(C(F)(F)F)c(F)c3)C(=O)N2C1` [PP0726], the “HRAS/KRAS (ratio of KD value with respect to GDP-bound HRAS wild-type protein to KD value with respect to KRAS)” value in assay [1] (SPR) was “B (a compound having 3 or more and less than 10 is denoted as B)”. Further, the “NRAS/KRAS (ratio of KD value with respect to GDP-bound NRAS wild-type protein to KD value with respect to KRAS)” value in assay [2] (SPR) is “B (a compound having 3 or more and less than 10 is denoted as B)”.

For `CCC[C@H]1C(=O)N[C@@H]([C@@H](C)CC)C(=O)N(C)CC(=O)N(C)[C@H]2C/C=C\CCN(C2=O)[C@@H](Cc2ccc(C)cc2)C(=O)N(C)CC(=O)N[C@@H](CCc2ccc(C(F)(F)F)c(OC)c2)C(=O)N2C[C@H](OCC)C[C@H]2C(=O)NC2(CC(C)(C)C2)C(=O)N(C)[C@@H](C2CCCC2)C(=O)N(C)[C@H](C(=O)N(C)C)CC(=O)N1C` [PP1892], the “HRAS/KRAS (ratio of KD value for HRAS to KD value for KRAS)” value in assay [1] (KD ratio, SPR) was “B (a compound having 3 or more and less than 10 is denoted as B)”. In assay [2] (KD ratio, SPR), the “NRAS/KRAS (ratio of KD value for NRAS to KD value for KRAS)” value was “A (a compound having 10 or more and less than 20 is denoted as A)”.

Regarding `CC[C@H](C)[C@@H]1NC(=O)[C@H](CC(C)C)N(C)C(=O)C[C@@H](C(=O)N2CCOCC2)N(C)C(=O)[C@H](C(C)C)N(C)C(=O)C2(CCCC2)NC(=O)[C@@H]2CCCN2C(=O)[C@H](CCc2ccc(C(F)(F)F)c(Cl)c2)NC(=O)CN(C)C(=O)[C@H](Cc2ccc(C)cc2)N(CC)C(=O)CN(C)C(=O)CN(C)C1=O` [PP0044] ([NMeL]I[Sar][Sar][NEtPhe(4-Me)][Sar][hPhe(3-Cl-4-CF3)]P[Ac5c][NMeV][NMeD]-Morpholide; lactam N-11), in assay [1] (SPR), the “HRAS/KRAS (ratio of KD for GDP-bound HRAS wild-type to KD for KRAS)” value was “C (A compound having a KD ratio of 0.1 or more and less than 3 is denoted as C)”. Besides, in assay [2] (SPR), the “NRAS/KRAS (ratio of KD for GDP-bound NRAS wild-type to KD for KRAS)” value is “C (A compound having a KD ratio of 0.1 or more and less than 3 is denoted as C)”.

Regarding `C#CC[C@H]1C(=O)N[C@@H]([C@@H](C)CC)C(=O)N(C)CC(=O)N(C)[C@H]2C/C=C\CCN(C2=O)[C@@H](Cc2ccc(C(F)(F)F)cc2)C(=O)N(C)CC(=O)N[C@@H](CCc2cc(F)c(C(F)(F)F)c(F)c2)C(=O)N2C[C@@H](C)C[C@H]2C(=O)NC2(CC(C)(C)C2)C(=O)N(C)[C@@H](C2CCCC2)C(=O)N(C)[C@H](C(=O)N(C)CCC)CC(=O)N1C` [PP2076], the “HRAS/KRAS (ratio of KD value with respect to HRAS to KD value with respect to KRAS)” value in assay [1] (SPR) is “A (a compound having 10 or more and less than 20 is denoted as A)”. The “NRAS/KRAS (ratio of KD value with respect to NRAS to KD value with respect to KRAS)” value in assay [2] (SPR) was “A (a compound having 10 or more and less than 20 is denoted as A)”.

Turning to `CCO[C@@H]1C[C@H]2C(=O)NC3(CCC3)C(=O)N(C)[C@@H](CC(F)F)C(=O)N(C)[C@H](C(=O)N3CCOCC3)CC(=O)N(C)[C@@H](CC(C)C)C(=O)N[C@@H]([C@@H](C)CC)C(=O)N(C)CC(=O)N(C)[C@H]3CCCCN(C3=O)[C@@H](Cc3ccc(C(F)(F)F)cc3)C(=O)N(C)CC(=O)N[C@@H](CCc3cc(F)c(C(F)(F)F)c(F)c3)C(=O)N2C1` [PP0813], the “HRAS/KRAS (ratio of KD value with respect to HRAS to KD value with respect to KRAS)” value in assay [1] (KD ratio, SPR) was “B (a compound having 3 or more and less than 10 is denoted as B)”. In addition, the “NRAS/KRAS (ratio of KD value with respect to NRAS to KD value with respect to KRAS)” value in assay [2] (KD ratio, SPR) was “C (A compound having a KD ratio of 0.1 or more and less than 3 is denoted as C)”.

Source of the values: US20250230193A1, “CYCLIC COMPOUND HAVING SELECTIVE KRAS INHIBITORY EFFECT ON HRAS AND NRAS” (CHUGAI SEIYAKU KABUSHIKI KAISHA, priority 2022, published 2025).
